Assay results from patent US20210395210A1, “INHIBITION OF BACTERIAL CHAPERONIN SYSTEMS” (THE TRUSTEES OF INDIANA UNIVERSITY, priority 2018, published 2021).
Like-named read-outs stand apart in the source and are kept apart here.

Assays:
[1] = test system: Pseudomonas aeruginosa (ATCC 10145); assay: Bacterial proliferation assay, P. aeruginosa; assay type: cell-based
Excerpt: (§1) Bacterial Strains: Enterococcus faecium—(Orla-Jensen) Schleifer and Kilpper-Balz strain NCTC 7171 (ATCC 19434); Drug sensitive Staphylococcus aureus—Rosenbranch strain Seattle 1945 (ATCC 25923); Methicillin resistant S. aureus (MRSA)—Rosenbach strain HPV107 (ATCC BAA-44); Klebsiella Pneumonia—(Schroeter) Trevisan strain NCTC 9633 (ATCC 13883); Acinetobacter baumannii—Bouvet and Grimont strain 2208 (ATCC 19606); Pseudomonas aeruginosa—(Schroeter) Migula strain NCTC 10332 (ATCC 10145); Enterobacter cloacae—E. cloacae, subsp. cloacae (Jordan) Hormaeche and Edwards strain CDC 442-68 (ATCC 13047).
(§2) Growth Media: All bacteria were grown in Brain Heart Infusion (BHI) broth/agar (Becton, Dickinson and Company). All liquid cultures were grown in BHI media supplemented with 25 mg/L Ca^2+ and 12.5 mg/L Mg^2+ to mimic free physiological concentrations of these cations. A 10 mg/mL Ca^2+ stock solution was prepared by dissolving 3.68 g of CaCl2.2H2O in 100 mL of deionized water, and a 10 mg/mL Mg^2+ stock solution was prepared by dissolving 8.36 g of MgCl2.6H2O in 100 mL deionized water. Both stock solutions were filter-sterilized using 0.2 μm pore size cellulose-acetate filters. 2.5 mL of the sterile 10 mg/mL Ca^2+ stock and 1.25 mL of the sterile 10 mg/mL Mg^2+ stock solutions were added per 1 L of autoclaved BHI medium to obtain 25 mg/L Ca^2+ and 12.5 mg/L Mg^2+ ions, respectively.
(§3) General Assay Protocol: Stock bacterial cultures were streaked onto BHI agar plates and grown overnight at 37° C. Fresh aliquots of broth were inoculated with single bacterial colonies and the cultures were grown overnight at 37° C. with shaking (240 rpm) in cation adjusted BHI media. The following morning, the overnight cultures were sub-cultured (1:5 dilution) into fresh aliquots of cation adjusted BHI media and grown at 37° C. for 1-2 hours with shaking. After 2 h, cultures were diluted into fresh media to achieve final OD600 readings of 0.017. Aliquots of these diluted cultures (30 μL) were added to clear, flat-bottom, 384-well polystyrene plates that were stamped with 0.5 μL of test compounds in 20 μL media. […] Plates were sealed with “Breathe Easy” oxygen permeable membranes (Diversified Biotech) and left to incubate at 37° C. without shaking (stagnant assay). OD600 nm readings were taken at either 6-8 h (S. aureus, MRSA, K. pneumonia, E. cloacae, and P. aeruginosa) or 24 h (E. faecium and A. baumannii). A second set of baseline control plates were prepared analogously, but without any bacteria added, to correct for possible compound absorbance and/or precipitation. Plates were then read at 600 nm using a Molecular Devices SpectraMax Plus384 microplate reader. […] Results presented represent the averages of EC50 values obtained from at quadriplicate (duplicate of duplicate) replicates.

[2] = test system: Klebsiella Pneumonia (ATCC 13883); assay: Bacterial proliferation assay, K. pneumoniae; assay type: cell-based
Excerpt: as §1, §2, §3

[3] = test system: Acinetobacter baumannii (ATCC 19606); assay: Bacterial proliferation assay, A. baumannii; assay type: cell-based
Excerpt: as §1, §2, §3

[4] = target: T1, native MDH (Sus scrofa, UniProt P00346); assay: Counter-screen for inhibition of native MDH enzymatic activity; assay type: biochemical, pig
T1 construct: soluble pig heart MDH from Roche, product #10127248001; purchased Roche 10127248001; host or cells: pig heart
T1 sequence (P00346 25-338): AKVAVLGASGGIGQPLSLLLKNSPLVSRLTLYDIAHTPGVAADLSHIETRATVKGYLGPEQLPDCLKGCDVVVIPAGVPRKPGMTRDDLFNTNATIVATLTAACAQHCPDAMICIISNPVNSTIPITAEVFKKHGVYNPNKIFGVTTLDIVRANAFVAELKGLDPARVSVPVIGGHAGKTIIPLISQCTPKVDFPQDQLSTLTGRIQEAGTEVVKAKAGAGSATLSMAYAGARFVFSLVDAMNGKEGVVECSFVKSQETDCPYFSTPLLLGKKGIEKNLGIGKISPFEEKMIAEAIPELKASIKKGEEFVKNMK
Protocol: Reagent Preparations & Assay Protocol: This assay was performed as described above for the GroEL/ES-dMDH refolding assay; however, the assay protocol differed in the sequence of compound addition to the assay plates. The refolding reactions were allowed to proceed for 45 min at 37° C. in the absence of test compounds (complete refolding of MDH occurs), then quenched with the EDTA stock. Compounds were then pin-transferred into the plates after the EDTA quenching step; thus, compounds effects are only possible by inhibiting the fully-refolded MDH reporter substrate. […] A340 nm measurements were recorded at 0.5 minutes (start point) and at successive time points until the amount of NADH consumed reached ˜90% (end point, generally between 20-35 minutes). Compounds were tested in 8-point, 3-fold dilution series (62.5 μM to 29 nM during the reporter reaction) in clear, flat-bottom 384-well microtiter plates. DMSO was used as a negative control, and previously discovered native MDH inhibitors were used as positive controls. […] Results presented represent the averages of IC50 values obtained from at least quadriplicate (duplicate of duplicate) replicates.

[5] = test system: Methicillin resistant S. aureus (MRSA) (ATCC BAA-44); assay: Bacterial proliferation assay, MRSA; assay type: cell-based, Staphylococcus aureus
Excerpt: as §1, §2, §3

[6] = test system: Enterococcus faecium (ATCC 19434); assay: Bacterial proliferation assay, E. faecium; assay type: cell-based
Excerpt: as §1, §2, §3

[7] = ATCC10145, OD600 at 6-8 h, read-out: Bacterial Proliferation EC50 P. aeruginosa
[8] = ATCC10145, log of EC50 (μM scale), with standard deviation, read-out: log(EC50) Bacterial Proliferation Assay P. aeruginosa (converted)
[9] = ATCC13883, OD600 at 6-8 h, read-out: Bacterial Proliferation EC50 K. pneumoniae
[10] = ATCC13883, log of EC50 (μM scale), with standard deviation, read-out: log(EC50) Bacterial Proliferation Assay K. pneumoniae (converted)
[11] = ATCC19606, OD600 at 24 h, read-out: Bacterial Proliferation EC50 A. baumannii
[12] = ATCC19606, log of EC50 (μM scale), with standard deviation, read-out: log(EC50) Bacterial Proliferation Assay A. baumannii (converted)
[13] = log of IC50 (μM scale), with standard deviation, read-out: log(IC50) Native MDH Reporter (converted)
[14] = read-out: Biochemical Assay IC50 Native MDH Reporter
[15] = Staphylococcus aureus, MRSA, log of EC50 (μM scale), with standard deviation, read-out: log(EC50) Bacterial Proliferation Assay S. aureus Resistant (converted)
[16] = ATCC19434, OD600 at 24 h, read-out: Bacterial Proliferation EC50 E. faecium
[17] = ATCC19434, log of EC50 (μM scale), with standard deviation, read-out: log(EC50) Bacterial Proliferation Assay C. faecium (converted)
[18] = Staphylococcus aureus, MRSA, OD600 at 6-8 h, read-out: Bacterial Proliferation EC50 S. aureus Resistant
[19] = ATCC10145, read-out: Bacterial Proliferation EC50 P. aeruginosa
[20] = ATCC10145, read-out: log(EC50) Bacterial Proliferation Assay P. aeruginosa (converted)
[21] = ATCC13883, read-out: Bacterial Proliferation EC50 K. pneumoniae
[22] = ATCC13883, read-out: log(EC50) Bacterial Proliferation Assay K. pneumoniae (converted)
[23] = ATCC19606, 24 h, read-out: Bacterial Proliferation EC50 A. baumannii
[24] = ATCC19606, read-out: log(EC50) Bacterial Proliferation Assay A. baumannii (converted)
[25] = log of IC50 (μM scale), with standard deviation
[26] = Staphylococcus aureus, read-out: Bacterial Proliferation EC50 S. aureus Resistant
[27] = Staphylococcus aureus, read-out: log(EC50) Bacterial Proliferation Assay S. aureus Resistant (converted)
[28] = ATCC19434, 24 h, read-out: Bacterial Proliferation EC50 E. faecium
[29] = ATCC19434, read-out: log(EC50) Bacterial Proliferation Assay C. faecium (converted)

Compound | EC50 [1, 7] [µM] | EC50 [1, 8] [µM] | EC50 [2, 9] [µM] | EC50 [2, 10] [µM] | EC50 [3, 11] [µM] | EC50 [3, 12] [µM] | IC50 [4, 13] [µM] | IC50 [4, 14] [µM] | EC50 [5, 15] [µM] | EC50 [6, 16] [µM] | EC50 [6, 17] [µM] | EC50 [5, 18] [µM] | EC50 [1, 19] [µM] | EC50 [1, 20] [µM] | EC50 [2, 21] [µM] | EC50 [2, 22] [µM] | EC50 [3, 23] [µM] | EC50 [3, 24] [µM] | EC50 [5, 27] [µM] | EC50 [6, 28] [µM] | also measured
O=C(Nc1ccc(Sc2nc3ccccc3s2)c(Cl)c1)c1cccc(Br)c1 [Compound 18, N-(4-(Benzo[d]thiazol-2-ylthio)-3-chlorophenyl)-3-bromobenzamide] | > 100 | > 100 | > 100 | > 100 | > 100 | > 100 | > 63.1 | > 63 | > 100 | > 100 | > 100 | – | – | – | – | – | – | – | – | – | –
CO[C@H]1/C=C/O[C@@]2(C)Oc3c(C)c(O)c4c(O)c(c(/C=N/N5CCN(C)CC5)c(O)c4c3C2=O)NC(=O)/C(C)=C\C=C\[C@H](C)[C@H](O)[C@@H](C)[C@@H](O)[C@@H](C)[C@H](OC(C)=O)[C@@H]1C [Rifampicin, rifampicin, reference compound] | 7.8 | 7.76 | 11 | 11 | 1.3 | 1.32 | > 63.1 | – | 0.229 | 0.13 | 0.126 | 0.23 | – | – | – | – | – | – | – | – | –
O=C(Nc1ccc(Sc2nc3ccccc3s2)c(Cl)c1)c1cc(Br)cc(Br)c1O [Compound 1, N-(4-(Benzo[d]thiazol-2-ylthio)-3-chlorophenyl)-3,5-dibromo-2-hydroxybenzamide] | – | – | – | – | – | – | – | – | – | – | – | – | > 100 | > 100 | > 100 | > 100 | 66 | 66.1 | 0.55 | 0.52 | inhibition of native MDH enzymatic activity (in words) ([4]; false-positive counter-screen): inhibit native MDH; log(IC50) Native MDH Reporter [4, 25]: 0.83 ± 0.25; EC50 [5, 26]: 0.55 µM; EC50 [6, 29]: 0.513 µM
O=C(Nc1ccccc1)c1cc(Br)cc(Br)c1O [Compound 13, 3,5-Dibromo-2-hydroxy-N-phenylbenzamide] | – | – | – | – | – | – | 50.1 | 51 | – | – | – | – | > 100 | > 100 | > 100 | > 100 | > 100 | > 100 | 2 | > 100 | EC50 [5, 26]: 2 µM; EC50 [6, 29]: > 100 µM
O=C(Nc1ccc(Oc2ccc(Cl)cc2)c(Cl)c1)c1cc(I)cc(I)c1O [Rafoxanide, rafoxanide, reference compound] | – | – | – | – | – | – | – | – | – | – | – | – | > 100 | > 100 | > 100 | > 100 | 31 | 30.9 | 0.347 | 0.99 | log(IC50) Native MDH Reporter [4, 25]: 1.40 ± 0.34; EC50 ([5]; MRSA, OD600 at 6-8 h, read-out: Bacterial Proliferation EC50 S. aureus Resistant): 0.34 µM; EC50 [6, 29]: 1 µM
COc1ccc(Br)cc1C(=O)Nc1cccc(Cl)c1 [Compound 39, 5-Bromo-N-(3-chlorophenyl)-2-methoxybenzamide] | > 100 | > 100 | > 100 | > 100 | > 100 | > 100 | > 63.1 | > 63 | > 100 | > 100 | > 100 | – | – | – | – | – | – | – | – | – | –
COc1c(Br)cc(Br)cc1C(=O)Nc1ccc(Sc2nc3ccccc3s2)c(Cl)c1 [Compound 29, N-(4-(Benzo[d]thiazol-2-ylthio)-3-chlorophenyl)-3,5-dibromo-2-methoxybenzamide] | > 100 | > 100 | > 100 | > 100 | > 100 | > 100 | > 63.1 | > 63 | > 100 | > 100 | > 100 | – | – | – | – | – | – | – | – | – | –
O=C(Nc1ccccc1)c1cccc(Br)c1O [Compound 14, 3-Bromo-2-hydroxy-N-phenylbenzamide] | > 100 | > 100 | > 100 | > 100 | > 100 | > 100 | > 63.1 | > 63 | 10 ± 1.7 | > 100 | > 100 | 10 | – | – | – | – | – | – | – | – | –
O=C(Nc1cccc(Cl)c1)c1cccc(Br)c1 [Compound 24, 3-Bromo-N-(3-chlorophenyl)benzamide] | > 100 | > 100 | > 100 | > 100 | > 100 | > 100 | > 63.1 | > 63 | 67.6 | > 100 | > 100 | 68 | – | – | – | – | – | – | – | – | –
COc1ccccc1C(=O)Nc1cccc(Cl)c1 [Compound 40, N-(3-Chlorophenyl)-2-methoxybenzamide] | > 100 | > 100 | > 100 | > 100 | > 100 | > 100 | > 63.1 | > 63 | > 100 | > 100 | > 100 | – | – | – | – | – | – | – | – | – | –
